The values below come from ChEMBL document CHEMBL1146759, “Chemo- and stereoselective synthesis of benzocycloheptene and 1-benzoxepin derivatives as alpha-sympathomimetic and anorexigenic agents” (Bioorg Med Chem Lett, 2004).

Data set [1] is described as follows: Effect on change in blood pressure in […]; no effect. The data set is classed as functional, organism-based.
Data set [2] is described as follows: Acute toxicity when administered intraperitoneally in mice. The data set is classed as organism-based. Particulars: mouse, in vivo, ip; read-out: ALD50.
In data set [3] the test system is Mus musculus. The experiment in a line: Protection against amphetamine toxicity in mice when administered percutaneously; no effect. It is filed as functional, organism-based.
Data set [4] is described as follows: Effect on change in blood pressure in mice. It is filed as functional.
The subject of data set [5] is Mus musculus. The experiment in a line: Effective dose for anorexigenic activity when administered to mice intraperitoneally; no effect. The data set is classed as functional, organism-based.
Data set [6] concerns Mus musculus. The experiment in a line: Effective dose for anorexigenic activity when administered to mice intraperitoneally. It is filed as functional. As to conditions: ip.
For data set [7], the system named is Mus musculus. The experiment in a line: Protection against amphetamine toxicity in mice when administered percutaneously. The data set is classed as functional.

Activity calls are given as the source filed them. No cut-off for these calls is given here.

One may read the ED50 as the dose at which the effect has come halfway, by size or by number of responders. As for `COc1cc2c(cc1OC)[C@H](O)[C@H](N)CCC2`, the “Change in blood pressure” value in data set [1] was “inactive”. In addition, the LD50 in data set [2] stood at 150 mg/kg. The ED50 entry in data set [3] is “inactive”.
On to `COc1ccc2c(c1)[C@H](O)[C@@H](N)CCO2`, for which the “Change in blood pressure” value in data set [4] is 40 mmHg. The ED50 entry in data set [5] is “inactive”. Further, the LD50 in data set [2] stood at 150 mg/kg.
Take `N[C@H]1CCCc2ccccc2[C@@H]1O`: the “Change in blood pressure” value in data set [1] is “inactive”. Moreover, the LD50 in data set [2] came out at 150 mg/kg. Besides, the ED50 entry in data set [3] was “inactive”.
Regarding `N[C@H]1CCOc2ccccc2[C@@H]1O`, the “Change in blood pressure” value in data set [4] amounted to 32 mmHg. In data set [2], the LD50 stood at 500 mg/kg. The same compound gave an ED50 in data set [6] of 55 mg/kg.
The matching figures for `N[C@@H]1CCOc2ccccc2[C@@H]1O`: 44 mmHg, 800 mg/kg and 75 mg/kg.
Take `Cc1ccc2c(c1)[C@H](O)[C@H](N)CCO2`: the “Change in blood pressure” value in data set [4] worked out at 10 mmHg. In addition, the ED50 entry in data set [5] is “inactive”. Moreover, in data set [2], the LD50 amounted to 300 mg/kg.
The matching figures for `COc1ccc2c(c1)[C@H](O)[C@H](N)CCO2`: 20 mmHg, “inactive” and 150 mg/kg.
Consider `Cc1cc2c(cc1C)[C@H](O)[C@H](N)CCC2`, for which, in data set [1], the “Change in blood pressure” value is “inactive”. Moreover, the LD50 in data set [2] was determined as 150 mg/kg. Also, the ED50 result in data set [3] is “inactive”.
As to `N[C@@H]1CCCc2cc(O)c(O)cc2[C@@H]1O`, the LD50 in data set [2] came out at 150 mg/kg. The ED50 result in data set [3] is “inactive”.
For the compound `Cc1ccc2c(c1)[C@H](O)[C@@H](N)CCO2`, the “Change in blood pressure” value in data set [4] was 38 mmHg. Moreover, in data set [5], the ED50 result was “inactive”. In addition, the LD50 in data set [2] was 150 mg/kg.
On to `N[C@@H]1CCCc2ccccc2[C@@H]1O`, for which the “Change in blood pressure” value in data set [1] was “inactive”. The LD50 in data set [2] was 150 mg/kg. In addition, the 50% effect level in data set [7] (ED50) was put at a dose of 73 mg/kg.
